Experimental data as given in US20010051131A1, “METHODS FOR DELIVERING BIOACTIVE AGENTS” (priority 1996, published 2001).

How the values were obtained:
glioblastoma mutiformae = format: in vivo
Description: An acoustically active composition is prepared in a 2 mL vial from an aqueous mixture of phosphatidylcholine vesicles filled with perfluorobutane gas in a manner as described above. The resulting compositions contains about 2×10^9 gas filled vesicles. The vial of gas filled vesicles will be diluted into a 100 mL volume of normal saline such that the final gas filled vesicle concentration is about 2×10^7 gas filled vesicles/mL.
The scalp of a patient suffering from glioblastoma mutiformae will be shaved prior to the procedure. The patient will receive an intravenous infusion of 200 mg/M^2 of Carmustine (BCNU) over a period of about 30 minutes. Fifteen minutes after initiating IV injection of Carmustine, IV infusion of the gas filled vesicle composition will be initiated at a rate of about 2 mL per minute (or about 4×10^7 gas filled vesicles per minute). One minute after initiation of infusion of gas filled vesicles, a 200-kilohertz ultrasound transducer will be turned on, and using an acoustic gel, it will be applied to the shaved area of the scalp. The transducer is focused on the glioblastoma. The energy of the transducer will be adjusted to a peak negative pressure of about 2.5 megaPascals and maintained as such for about 30 minutes (for about 15 minutes after infusion of Carmustine has ceased). The infusion of gas filled vesicles will then be terminated.

prostate cancer = assay: Delivery of a radiation sensitizer to treat prostate cancer with air-filled polylactic acid microspheres and ultrasound; details: 100 mg/m^2 IV over 1 hour, microspheres 5×10^7/minute, endorectal ultrasound 1.5 MegaPascals for 30 minutes

Compound: O=NN(CCCl)C(=O)NCCCl [Carmustine]
- tumor control (glioblastoma mutiformae; 200 mg/M^2 IV over about 30 minutes, gas filled vesicles about 2 mL per minute, 200-kilohertz ultrasound, 2.5 megaPascals): improved tumor control
- delivery of the drug into the tumor tissue (glioblastoma mutiformae; in vivo, iv): enhanced delivery of the drug into the tumor tissue

Compound: CC(=O)O[C@H]1C(=O)[C@@]2(C)[C@H]([C@H](OC(=O)c3ccccc3)[C@]3(O)C[C@H](OC(=O)[C@H](O)[C@@H](NC(=O)c4ccccc4)c4ccccc4)C(C)=C1C3(C)C)[C@]1(OC(C)=O)CO[C@@H]1C[C@@H]2O [Paclitaxel]
- delivery of drug within the prostate gland (prostate cancer): increased delivery of drug within the prostate gland
- tumor control (prostate cancer; then radiation therapy): Improved tumor control
